In patent publication US12590070B2, “Adamantane derivatives as inhibitors of focal adhesion kinase” (SAMJIN PHARMACEUTICAL CO., LTD., priority 2019, dated 2026):

How the values were obtained:
Pyk2 [1] = molecular target: T1, Pyk2 (Homo sapiens, UniProt Q14289); assay: ADP-Glo Kinase Assay, Pyk2; format: biochemical; settings: ADP-Glo Kinase Assay Kit
T1 construct: purchased Promega V4083
Procedure: (§1) Briefly, a kinase test was performed and quantified according to the manufacturer's instructions after treating the adamantane derivative compound of the present invention by using the ADP-Glo™ Kinase Assay Kit (FAK, Promega, V1971; Pyk2, Promega, V4083; InsR, Promega, V9401) containing each kinase of Promega.

InsR = molecular target: T2, InsR (Homo sapiens, UniProt P06213); assay: ADP-Glo Kinase Assay, InsR; format: biochemical; settings: ADP-Glo Kinase Assay Kit
T2 construct: purchased Promega V9401
Procedure: as §1

FAK [2] = molecular target: T3, FAK (Homo sapiens, UniProt Q05397); assay: ADP-Glo Kinase Assay, FAK; format: biochemical; design: purchased Promega V1971; settings: ADP-Glo Kinase Assay Kit
Procedure: as §1

FAK [3] = molecular target: T3, FAK; assay: FAK [pY397] ELISA in MDA-MB-231 cells; format: cell-based; design: endogenous in cells; host or cells: MDA-MB-231; settings: MDA-MB-231, treated for one hour, Table 2; read-out: FAK inhibitory activity (IC50)
Procedure: (§2) Briefly, an enzyme-linked immunosorbent assay test was performed according to the manufacturer's instructions by using the FAK (Phospho) [pY397] Human ELISA Kit (Thermo Fisher Scientific, KH00441) after dispensing 1×10^6 MDA-MB-231 cells into each well of a 6-well plate, inducing cell stabilization for 24 hours, and treating each compound at different concentrations (o, 1, 5, 10, 50, 100, 500, 1000 nM) for one hour.

Pyk2 [4] = molecular target: T1, Pyk2; assay: Eurofins kinase screening and profiling, Pyk2; format: biochemical
Met = molecular target: T4, Met (Homo sapiens, UniProt P08581); assay: Eurofins kinase screening and profiling, Met; format: biochemical
T4 construct: purchased Eurofins (contract screening service)

ALK = molecular target: T5, ALK (Homo sapiens, UniProt Q9UM73); assay: Eurofins kinase screening and profiling, ALK; format: biochemical
T5 construct: purchased Eurofins (contract screening service)

MDA-MB-453 = assay: 3D spheroid assay, MDA-MB-453; format: cell-based; settings: Homo sapiens; MDA-MB-453 spheroids, 96 hours; read-out: Cancer cell growth inhibitory activity (IC50)
Procedure: (§3) A 3D spheroid assay was performed as a method for measuring the growth of cancer cells under three-dimensional (3D) culture conditions. Briefly, the 5×10^3 triple-negative breast cancer cells in each well of a 96-well flat plate were three-dimensionally cultured for three days by using MammoCult™ Human Medium Kit (Stemcell Technologies, #05620) and the formed cancer cell spheroids were treated with compound 4 at different concentrations (o, 0.2, 0.5, 1, 2, 5, 10, 20 PM) for 96 hours. The cancer cell growth inhibitory effect of the compound was quantified according to the manufacturer's instructions by using CellTiter-Glo® 3D Cell Viability Assay Kit (Promega, G9681).

Hs578T = assay: 3D spheroid assay, Hs578T; format: cell-based; settings: Homo sapiens, Hs-578T; Hs578T spheroids, 96 hours; read-out: Cancer cell growth inhibitory activity (IC50)
Procedure: as §3

MDA-MB-231 cells [5] = assay: 3D invasion assay; format: cell-based, human; settings: MDA-MB-231 spheroids, 1, 5 μM, 72 hours, FIGS. 2 and 3
Procedure: A cell invasion assay was performed and quantified according to a 3D invasion assay. Briefly, MDA-MB-231 cells were cultured in a 96-well round plate (5×10^3/well) for three days to form cancer cell spheroids, then fixed in a mixture of semi-solid Matrigel and type I collagen, and then treated with compound 4 at different concentrations (1, 5 μM). A degree of infiltration was analyzed by using a microscope (see FIG. 2) and an imaging software ImageJ in 72 hours later, and an obtained area value was quantified based on a following equation (Equation 1) and shown in a graph (see FIG. 3). Relative invasion=(total area of compound treated group−spheroid area of compound treated group)/(total area of control−spheroid area of control) [Equation 1]

MDA-MB-231 cells [6] = assay: Triple-negative breast cancer xenograft mouse model; format: in vivo; settings: MDA-MB-231 xenograft nude mice
Procedure: In one week after acclimatization of five-week-old male nude mice, 1×10^6 MDA-MB-231 cells were subcutaneously inoculated into the mice and observed until a tumor volume reached about 100 mm^3 after 14 days. In order to confirm a tumor growth inhibitory effect of derived candidate materials in the triple-negative breast cancer xenograft mouse model, eight mice for each group were divided into a control group and three experimental groups at different concentrations (4-20 mg/kg, 4-40 mg/kg and 4-80 mg/kg), and each compound was treated once daily. A tumor volume of the mice was measured three times a week on every other day, and the mice were sacrificed on day 29 after cell inoculation. FIG. 4 is a graph showing the tumor volume calculated based on the following formula (Equation 2) with a starting date of drug treatment as day 1. Tumor volume (mm^3)=[(tumor short diameter^2×tumor long diameter)/2] [Equation 2] […] [Equation 3]

FAK [7] = molecular target: T3, FAK; assay: Eurofins kinase screening and profiling, FAK; format: biochemical; design: purchased Promega V1971
FAK [8] = molecular target: T3, FAK; assay: FAK [pY397] ELISA in MDA-MB-453 cells; format: cell-based; design: endogenous in cells; host or cells: MDA-MB-231; settings: cell line MDA-MB-453; read-out: FAK inhibitory activity (IC50)
FAK [9] = molecular target: T3, FAK; assay: FAK [pY397] ELISA in HCC70 cells; format: cell-based; design: endogenous in cells; host or cells: MDA-MB-231; settings: cell line HCC70; read-out: FAK inhibitory activity (IC50)
Procedure: as §2

FAK [10] = molecular target: T3, FAK; assay: FAK [pY397] ELISA in BT-20 cells; format: cell-based; design: endogenous in cells; host or cells: MDA-MB-231; settings: cell line BT-20; read-out: FAK inhibitory activity (IC50)
FAK [11] = molecular target: T3, FAK; assay: FAK [pY397] ELISA in BT-549 cells; format: cell-based; design: endogenous in cells; host or cells: MDA-MB-231; settings: cell line BT-549; read-out: FAK inhibitory activity (IC50)
FAK [12] = molecular target: T3, FAK; assay: FAK [pY397] ELISA in Hs578T cells; format: cell-based; design: endogenous in cells; host or cells: MDA-MB-231; settings: cell line Hs578T; read-out: FAK inhibitory activity (IC50)
[13] = preclinical study; cited from earlier work
[14] = at 1 μM, read-out: % inhibition rate (at 1 μM)

T3 sequence (Q05397 whole entry): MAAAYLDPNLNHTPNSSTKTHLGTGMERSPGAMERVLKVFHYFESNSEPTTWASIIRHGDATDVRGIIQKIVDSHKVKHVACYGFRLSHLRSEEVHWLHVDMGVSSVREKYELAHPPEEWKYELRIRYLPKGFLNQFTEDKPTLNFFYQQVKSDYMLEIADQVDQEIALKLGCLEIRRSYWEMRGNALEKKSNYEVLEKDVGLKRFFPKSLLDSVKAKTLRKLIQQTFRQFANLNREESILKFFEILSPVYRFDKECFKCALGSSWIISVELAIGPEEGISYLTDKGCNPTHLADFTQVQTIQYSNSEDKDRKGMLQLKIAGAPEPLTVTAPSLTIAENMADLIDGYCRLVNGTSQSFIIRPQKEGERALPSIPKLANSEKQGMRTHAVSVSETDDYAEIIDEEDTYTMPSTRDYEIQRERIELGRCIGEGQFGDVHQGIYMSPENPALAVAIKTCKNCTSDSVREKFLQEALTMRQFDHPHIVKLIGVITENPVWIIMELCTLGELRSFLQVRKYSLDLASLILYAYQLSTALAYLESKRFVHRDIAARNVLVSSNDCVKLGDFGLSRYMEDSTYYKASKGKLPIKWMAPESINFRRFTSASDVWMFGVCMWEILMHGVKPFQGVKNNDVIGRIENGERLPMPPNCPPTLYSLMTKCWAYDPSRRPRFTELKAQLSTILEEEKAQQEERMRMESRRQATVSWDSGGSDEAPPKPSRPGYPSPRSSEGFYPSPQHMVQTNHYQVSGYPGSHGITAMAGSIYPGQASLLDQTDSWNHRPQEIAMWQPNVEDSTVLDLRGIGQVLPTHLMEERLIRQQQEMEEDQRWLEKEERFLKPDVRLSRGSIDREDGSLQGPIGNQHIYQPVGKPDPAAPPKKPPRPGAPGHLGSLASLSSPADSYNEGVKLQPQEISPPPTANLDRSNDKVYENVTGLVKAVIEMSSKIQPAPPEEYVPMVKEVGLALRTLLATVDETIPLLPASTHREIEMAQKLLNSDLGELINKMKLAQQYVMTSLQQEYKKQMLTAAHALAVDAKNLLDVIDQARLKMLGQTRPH
T2 sequence (P06213 28-1382): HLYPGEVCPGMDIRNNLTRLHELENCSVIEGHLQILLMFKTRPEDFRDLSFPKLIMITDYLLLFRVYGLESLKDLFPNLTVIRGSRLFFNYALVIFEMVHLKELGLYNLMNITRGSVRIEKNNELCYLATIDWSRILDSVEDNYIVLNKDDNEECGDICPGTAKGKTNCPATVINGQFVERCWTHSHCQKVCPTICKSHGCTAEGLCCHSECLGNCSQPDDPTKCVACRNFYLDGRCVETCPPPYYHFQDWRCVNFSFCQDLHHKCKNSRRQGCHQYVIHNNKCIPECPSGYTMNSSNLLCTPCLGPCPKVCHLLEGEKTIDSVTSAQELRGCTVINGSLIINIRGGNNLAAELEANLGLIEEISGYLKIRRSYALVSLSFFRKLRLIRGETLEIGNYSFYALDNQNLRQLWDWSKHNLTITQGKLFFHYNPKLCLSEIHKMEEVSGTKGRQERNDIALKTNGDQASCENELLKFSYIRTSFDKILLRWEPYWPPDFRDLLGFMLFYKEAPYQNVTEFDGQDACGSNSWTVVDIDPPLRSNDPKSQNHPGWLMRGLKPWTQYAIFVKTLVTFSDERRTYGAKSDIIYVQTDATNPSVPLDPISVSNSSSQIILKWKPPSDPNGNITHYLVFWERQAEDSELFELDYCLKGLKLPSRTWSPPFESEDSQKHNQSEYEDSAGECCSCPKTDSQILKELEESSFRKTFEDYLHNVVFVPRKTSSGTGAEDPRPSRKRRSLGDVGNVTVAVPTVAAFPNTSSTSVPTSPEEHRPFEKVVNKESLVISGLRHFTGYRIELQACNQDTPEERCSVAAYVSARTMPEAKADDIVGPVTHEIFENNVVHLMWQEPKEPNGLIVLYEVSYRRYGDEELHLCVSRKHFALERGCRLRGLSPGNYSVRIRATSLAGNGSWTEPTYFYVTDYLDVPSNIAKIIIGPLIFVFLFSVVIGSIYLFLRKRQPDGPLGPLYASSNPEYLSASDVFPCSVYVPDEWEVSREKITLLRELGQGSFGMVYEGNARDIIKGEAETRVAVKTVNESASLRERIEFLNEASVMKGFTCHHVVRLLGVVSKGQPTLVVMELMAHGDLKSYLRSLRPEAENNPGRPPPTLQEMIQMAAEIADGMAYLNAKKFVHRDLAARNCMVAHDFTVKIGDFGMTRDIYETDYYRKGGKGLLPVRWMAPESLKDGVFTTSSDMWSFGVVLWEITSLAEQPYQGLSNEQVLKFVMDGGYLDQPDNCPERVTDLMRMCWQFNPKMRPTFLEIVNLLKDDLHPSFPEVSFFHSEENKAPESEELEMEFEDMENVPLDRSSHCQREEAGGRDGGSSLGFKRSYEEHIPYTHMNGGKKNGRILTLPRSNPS
T1 sequence (Q14289 whole entry): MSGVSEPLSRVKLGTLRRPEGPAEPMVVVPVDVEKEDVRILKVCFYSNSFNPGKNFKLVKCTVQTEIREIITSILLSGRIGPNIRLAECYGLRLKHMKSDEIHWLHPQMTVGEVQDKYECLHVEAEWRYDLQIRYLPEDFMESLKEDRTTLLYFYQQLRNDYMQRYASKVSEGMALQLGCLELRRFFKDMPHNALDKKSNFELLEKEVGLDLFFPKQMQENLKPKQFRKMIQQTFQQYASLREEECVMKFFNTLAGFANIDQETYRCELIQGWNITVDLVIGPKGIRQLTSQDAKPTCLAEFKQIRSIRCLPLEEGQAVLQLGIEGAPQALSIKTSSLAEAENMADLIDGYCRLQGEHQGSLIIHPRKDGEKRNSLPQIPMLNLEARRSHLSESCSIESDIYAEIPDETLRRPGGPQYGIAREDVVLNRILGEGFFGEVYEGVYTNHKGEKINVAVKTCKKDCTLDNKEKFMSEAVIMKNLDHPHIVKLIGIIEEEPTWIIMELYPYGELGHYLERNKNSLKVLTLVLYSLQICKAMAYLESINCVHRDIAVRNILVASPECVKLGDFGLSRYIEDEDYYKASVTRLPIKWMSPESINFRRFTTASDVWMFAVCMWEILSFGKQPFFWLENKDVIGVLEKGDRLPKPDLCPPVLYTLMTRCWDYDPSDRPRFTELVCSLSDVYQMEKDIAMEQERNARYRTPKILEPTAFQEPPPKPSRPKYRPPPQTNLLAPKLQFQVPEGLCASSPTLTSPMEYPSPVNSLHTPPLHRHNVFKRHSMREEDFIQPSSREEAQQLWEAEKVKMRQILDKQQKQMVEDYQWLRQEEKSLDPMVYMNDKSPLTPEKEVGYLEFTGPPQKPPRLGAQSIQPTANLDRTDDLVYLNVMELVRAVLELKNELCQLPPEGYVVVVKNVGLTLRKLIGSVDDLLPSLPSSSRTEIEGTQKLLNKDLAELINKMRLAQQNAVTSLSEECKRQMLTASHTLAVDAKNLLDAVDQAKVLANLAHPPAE
T4 sequence (P08581 25-1390): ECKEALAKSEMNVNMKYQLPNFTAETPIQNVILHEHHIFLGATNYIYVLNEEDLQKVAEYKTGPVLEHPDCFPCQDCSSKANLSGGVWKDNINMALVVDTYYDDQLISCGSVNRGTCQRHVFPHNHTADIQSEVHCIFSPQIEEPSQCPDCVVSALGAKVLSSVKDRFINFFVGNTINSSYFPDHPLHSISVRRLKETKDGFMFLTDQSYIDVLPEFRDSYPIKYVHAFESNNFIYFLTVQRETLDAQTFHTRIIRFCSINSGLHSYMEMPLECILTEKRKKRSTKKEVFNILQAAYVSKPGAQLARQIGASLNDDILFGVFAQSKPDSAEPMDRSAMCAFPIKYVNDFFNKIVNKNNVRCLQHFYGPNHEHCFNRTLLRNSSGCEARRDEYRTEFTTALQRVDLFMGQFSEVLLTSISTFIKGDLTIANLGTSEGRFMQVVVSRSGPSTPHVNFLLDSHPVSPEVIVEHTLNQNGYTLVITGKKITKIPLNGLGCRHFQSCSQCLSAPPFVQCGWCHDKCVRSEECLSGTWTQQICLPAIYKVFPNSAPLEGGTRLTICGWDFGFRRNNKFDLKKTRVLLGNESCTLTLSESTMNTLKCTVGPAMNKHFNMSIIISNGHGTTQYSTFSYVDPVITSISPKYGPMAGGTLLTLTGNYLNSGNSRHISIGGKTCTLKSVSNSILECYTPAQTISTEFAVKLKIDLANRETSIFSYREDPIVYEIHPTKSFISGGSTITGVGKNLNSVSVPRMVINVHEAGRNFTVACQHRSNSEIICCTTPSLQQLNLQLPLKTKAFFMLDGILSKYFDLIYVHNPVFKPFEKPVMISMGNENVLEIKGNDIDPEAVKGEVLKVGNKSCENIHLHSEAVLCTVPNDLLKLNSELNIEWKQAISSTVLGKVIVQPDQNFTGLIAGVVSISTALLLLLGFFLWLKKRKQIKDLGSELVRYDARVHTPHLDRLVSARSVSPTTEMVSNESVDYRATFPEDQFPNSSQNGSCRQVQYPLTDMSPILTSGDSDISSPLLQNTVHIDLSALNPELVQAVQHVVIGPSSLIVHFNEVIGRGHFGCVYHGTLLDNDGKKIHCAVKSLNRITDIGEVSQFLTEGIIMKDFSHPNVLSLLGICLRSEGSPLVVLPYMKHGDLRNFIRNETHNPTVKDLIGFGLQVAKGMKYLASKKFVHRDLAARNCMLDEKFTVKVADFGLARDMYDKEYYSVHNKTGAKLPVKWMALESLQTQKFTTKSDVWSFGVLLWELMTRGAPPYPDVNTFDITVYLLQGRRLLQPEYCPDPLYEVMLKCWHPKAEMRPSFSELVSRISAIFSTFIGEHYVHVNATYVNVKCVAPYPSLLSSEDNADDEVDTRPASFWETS

| IC50 (Pyk2 [1]) [nM] | IC50 (InsR) [µM] | IC50 (FAK [2]) [nM] | IC50 (FAK [3]) [nM] | Structure (SMILES) | other results |
| --- | --- | --- | --- | --- | --- |
| 124 | > 10 | 82.9 | 83 | CNC(=O)c1cccc(C)c1Nc1nc(Nc2ccc(N[C@H]3C4CC5CC3C[C@](O)(C5)C4)cc2OC)ncc1C(F)(F)F [Compound 1, 2-((2-((4-(((trans)-5-hydroxyadamantan-2-yl)amino)-2-methoxyphenyl)amino)-5-(trifluoromethyl)pyrimidin-4-yl)amino)-N,3-dimethylbenzamide] |  |
| 256 | > 10 | 154 | 92 | CNC(=O)c1cccc(C)c1Nc1nc(Nc2ccc(N3CCN(C4C5CC6CC(C5)CC4C6)CC3)cc2OC)ncc1C(F)(F)F (stereo not shown) [Compound 3, 2-((2-((4-(4-(adamantan-2-yl)piperazin-1-yl)-2-methoxyphenyl)amino)-5-(trifluoromethyl)pyrimidin-4-yl)amino)-N,3-dimethylbenzamide] |  |
| 151 | 5.67 | 46.2 | 34 | CNC(=O)c1cccc(C)c1Nc1nc(Nc2ccc(N3CCN([C@H]4C5CC6CC4C[C@](O)(C6)C5)CC3)cc2OC)ncc1C(F)(F)F [Compound 4, 2-((2-((4-(4-((trans)-5-hydroxyadamantan-2-yl)piperazin-1-yl)-2-methoxyphenyl)amino)-5-(trifluoromethyl)pyrimidin-4-yl)amino)-N,3-dimethylbenzamide] | IC50 (Pyk2 [4]; Pyk2, Eurofins): 301 nM; inhibition at 1 µM (Pyk2 [4]; Pyk2, at 1 μM, read-out: % inhibition rate (at 1 μM)): 96%; IC50 (Met; Eurofins): 542 nM; inhibition at 1 µM (Met; [14]): 79%; IC50 (ALK; Eurofins): 802 nM; inhibition at 1 µM (ALK; [14]): 72%; IC50 (MDA-MB-453): 1040 nM; IC50 (Hs578T): > 10 µM; invasion inhibitory activity (MDA-MB-231 cells [5]): excellent invasion inhibitory activity; % TGI (MDA-MB-231 cells [6]; 20 mg/kg once daily): 72.11%; % TGI (MDA-MB-231 cells [6]; 40 mg/kg once daily): 74.03%; % TGI (MDA-MB-231 cells [6]; 80 mg/kg once daily): 81.28%; IC50 (FAK [7]; Eurofins): 78 nM; inhibition at 1 µM (FAK [7]; [14]): 97%; IC50 (FAK [8]): 20 nM; IC50 (FAK [9]): 59 nM; IC50 (FAK [10]): 63 nM; IC50 (FAK [11]): 49 nM; IC50 (FAK [12]): 20 nM |
| 157 | > 10 | 96.5 | 118 | CNC(=O)c1cccc(C)c1Nc1nc(Nc2ccc(NC3CCN(C4C5CC6CC(C5)CC4C6)CC3)cc2OC)ncc1C(F)(F)F (stereo not shown) [Compound 6, 2-((2-((4-((1-(adamantan-2-yl)piperidin-4-yl)amino)-2-methoxyphenyl)amino)-5-(trifluoromethyl)pyrimidin-4-yl)amino)-N,3-dimethylbenzamide] |  |
| 108 | 6.15 | 46.9 | 38 | CNC(=O)c1cccc(C)c1Nc1nc(Nc2ccc(NC3CCN([C@H]4C5CC6CC4C[C@](O)(C6)C5)CC3)cc2OC)ncc1C(F)(F)F [Compound 7, 2-((2-((4-((1-((trans)-5-hydroxyadamantan-2-yl)piperidin-4-yl)amino)-2-methoxyphenyl)amino)-5-(trifluoromethyl)pyrimidin-4-yl)amino)-N,3-dimethylbenzamide] |  |
|  | > 10 | 96.7 | 382 | CNC(=O)c1cccc(C)c1Nc1nc(Nc2ccc(OC34CC5CC(C3)C(=O)C(C5)C4)cc2OC)ncc1C(F)(F)F [Compound 10, 2-((2-((2-methoxy-4-((4-oxoadamantan-1-yl)oxy)phenyl)amino)-5-(trifluoromethyl)pyrimidin-4-yl)amino)-N,3-dimethylbenzamide] |  |
| 231 | > 10 | 65.1 | 118 | CNC(=O)c1cccc(C)c1Nc1nc(Nc2ccc(OC34CC5CC(C3)C(O)C(C5)C4)cc2OC)ncc1C(F)(F)F (stereo not shown) [Compound 11, 2-((2-((4-((4-hydroxyadamantan-1-yl)oxy)-2-methoxyphenyl)amino)-5-(trifluoromethyl)pyrimidin-4-yl)amino)-N,3-dimethylbenzamide] |  |
| 90.6 | > 10 | 45.5 | 27 | CNC(=O)c1cccc(C)c1Nc1nc(Nc2ccc(NC(=O)C34CC5CC(C3)C(N3CCOCC3)C(C5)C4)cc2OC)ncc1C(F)(F)F (stereo not shown) [Compound 25, N-(3-methoxy-4-((4-((2-methyl-6-(methylcarbamoyl)phenyl)amino)-5-(trifluoromethyl)pyrimidin-2-yl)amino)phenyl)-4-morpholinoadamantan-1-carboxamide] |  |
| 81.4 | > 10 | 39.5 | 55 | CNC(=O)c1cccc(C)c1Nc1nc(Nc2ccc(NC(=O)[C@]34CC5CC(C3)[C@@H](N3CC[C@H](NC(C)=O)C3)C(C5)C4)cc2OC)ncc1C(F)(F)F [Compound 27, (trans)-4-((S)-3-acetamidopyrrolidin-1-yl)-N-(3-methoxy-4-((4-((2-methyl-6-(methylcarbamoyl)phenyl)amino)-5-(trifluoromethyl)pyrimidin-2-yl)amino)phenyl) adamantan-1-carboxamide] |  |
|  |  |  |  | CNC(=O)c1ccccc1Nc1nc(Nc2ccc(N3CCOCC3)cc2OC)ncc1Cl [TAE226] | side effects [13]: serious side effects such as unexpected inhibition of glucose metabolism, a decrease in blood concentration |
